# Experimental data taken from article PMC8710297, “Identification of potent SENP1 inhibitors that inactivate SENP1/JAK2/STAT signaling pathway and overcome platinum drug resistance in ovarian cancer” (Clinical and Translational Medicine, 2021).
# What was measured:
# [1] = test system: IGROV1 CR xenograft; assay: IGROV1 CR xenograft tumor growth; type: in vivo; conditions: nude mice, i.p., cisplatin 8 mg/kg/2 days + UA 10 mg/kg/2 days or UAMMC9 2 mg/kg/2 days, compared to single agents
# Method: Importantly, the treatments had minor toxicity (Figures S3B–D).
# (§1) Cell viability was measured by SRB assay. […] Data were represented as mean ± SD (n = 3). (B) Colony formation assay in cells treated as indicated. […] (D) Growth curves of xenograft tumors are shown in (C). Data are represented as means ± SEM, n = 6 mice/group. **p < 0.01. […] (F) IGROV1 CR xenograft tumor growth curve by indicated treatments. Data are represented as means ± SD, n = 6 tumors/group. **p < 0.01. (G) Immunohistochemistry (IHC) staining against pSTAT3 antibodies of tumor samples from four groups of mice (magnification, 200x) (Upper). […]
# ac etoni tri le (solvent A) and 0.02% phosphoric ac id in 10% acetonitrile in wate r (solvent B) at a constant solvent flow rate of 1.0 mL/min.
# 9. Molecular docking and dynamics simulation
# Docking and scoring were performed by using Schrödinger software pa c ka ge. Lig Prep wa s incorp orated to refin e UA (ligand). Ionization state s within pH=7.0±2.0 were selected fo r docking. SENP1 crystal structu re was downloaded from protein datab ank (PDB ID: 2IY0, http :// ww w.rcsb.org /). […] The protein wa s added hyd ro g e n atom s and charges, removed wate rs by Protein Preparation Wi zard module. […] The extended sampling method wa s selected fo r confor mationa l search, and the resi du es in the ra n ge of ligand 5 Å we re further optimized. […]
# 6 tumors per group were assessed. […]
# [2] = test system: IGROV1 CR cells; assay: Synergy with cisplatin, SRB cell viability, combination index; type: cell-based
# Method: as §1
# represented as mean ± SD (n = 3) . ( B) Body we i ght changes of mice in each grou p treated […]
# […] Data are rep res e nted as mea ns ± SD, n= 6 tu mors /g roup . (C) H&E staining of paraffin‐embedded 3‐μm‐th ick tissue sec tions of the tumor, heart, lung , liver and kidney from 4 groups of mice (m agn i f ication , ×200) treated in B.
# Cisplatin: sl ightl y […]
# means ± SD, n=6 tumors/group . […]
# 1. Antibodies and re a ge nt s […]
# […] Momordin Ic ( A14773; Adooq Biosc ience) was dissolved in DMSO. Ursolic acid (A10961; Adooq Bioscience) wa s dissolved in DMSO. […]
# Cell viability was detected using Sulforhodamine B (SRB) assay as described previously (3).
# Absorbance at 51 0 nm was detected using a SpectraMax Re a d e r (Molecular Devices) and an alyzed with SoftMax Analys is Software (Molecular Devices). […]
Structure (SMILES),reduction of tumor growth in combination with cisplatin [1],synergy with cisplatin to inhibit IGROV1 CR cells [2]
C[C@H]1[C@H](C)CC[C@]2(C(=O)NCC(=O)N(C)CCO)CC[C@]3(C)C(=CC[C@@H]4[C@@]5(C)CC[C@H](O)C(C)(C)[C@@H]5CC[C@]43C)[C@H]12 [UAMMC9],remarkable synergy,great synergy
"C[C@H]1[C@H](C)CC[C@]2(C(=O)O)CC[C@]3(C)C(=CC[C@@H]4[C@@]5(C)CC[C@H](O)C(C)(C)[C@@H]5CC[C@]43C)[C@H]12 [UA, ursolic acid, reference compound]",remarkable synergy,great synergy
